Legend:
hCCR2b = target: T1, hCCR2b (Homo sapiens, UniProt P41597); assay: CCR2 membrane binding assay (SPA, [125I] MCP-1); settings: table does not name the assay; b437 says 'in these assays'
T1 construct: expressed in transfected cells; host or cells: CHO-dukX
T1 sequence (P41597 1-360 isoform P41597-2): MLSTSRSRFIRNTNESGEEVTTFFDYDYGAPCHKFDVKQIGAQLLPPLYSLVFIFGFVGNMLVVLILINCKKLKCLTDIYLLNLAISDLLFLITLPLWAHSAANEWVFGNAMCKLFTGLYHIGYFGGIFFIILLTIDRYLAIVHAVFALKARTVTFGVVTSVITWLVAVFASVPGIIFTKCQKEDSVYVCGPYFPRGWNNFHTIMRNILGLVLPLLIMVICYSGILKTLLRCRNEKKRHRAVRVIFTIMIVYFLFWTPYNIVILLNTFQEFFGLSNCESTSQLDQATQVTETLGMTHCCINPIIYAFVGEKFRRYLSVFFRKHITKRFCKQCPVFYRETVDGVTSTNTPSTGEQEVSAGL
Protocol: Transfected CHO-dukX cells stably expressing the hCCR2b gene are grown in MEM alpha medium to a confluency of between 70 and 80%. After discarding the medium, 30 ml ice-cold physiological buffer solution containing 1 mM EDTA are added and the cells removed from the plate using a scraper. The cell suspension is centrifuged at 800 g for 10′ at 4° C. and the cell pellet resuspended in buffer. Cell lysis is done using a Polytron PTI300D instrument at 28 000 RPM for 2 times 30 seconds on ice. Membranes are collected by centrifugation at 42 000 g for 20 minutes at 4° C. and subjected to a second round of lysis (Polytron, 28 000 RPM, 2×30 seconds on ice). Following centrifugation at 42 000 g for 20 minutes at 4° C. the membranes are resuspended in buffer at a protein concentration of 2 mg/ml and stored at −80° C. Ten millimolar stock solutions of test compounds in 100% DMSO are prepared. Test compounds are further diluted in buffer to yield the four-fold concentrated solutions for the tests that assayed a range of 10^−10 to 10^−5 M. The SPA assay is performed in a final volume of 200 μl per well in 96 well plates. The components are added per well in the following order: • 50 μl Buffer (+/−test compound) • 50 μl Wheat germ agglutinin-SPA beads (1.25 mg/well) in buffer • 50 μl CCR2B membrane suspension diluted with buffer to 0.04 mg/ml (2 μg/well), alternatively 50,000 cells per well • 50 μl [^125I] MCP-1 in buffer (60 pM final concentration, 2.5 μCi/plate)
After addition of all components the plate is sealed and incubated for 90 minutes at room temperature with constant shaking. Following incubation the plate is centrifuged at 1000 RPM in a Sorvall RC3B centrifuge for 4 minutes at room temperature and counted for 3 minutes per well in a TOP COUNT instrument (Packard). The quench-corrected counts are used for the analysis of radioligand binding.

Human CCR5 = target: T2, Human CCR5 (Homo sapiens, UniProt P51681); assay: CCR5 membrane binding assay ([I-125]MIP-1α); settings: table does not name the assay; b437 says 'in these assays'
T2 construct: expressed in transfected cells; host or cells: CHO K1
T2 sequence (P51681 whole entry): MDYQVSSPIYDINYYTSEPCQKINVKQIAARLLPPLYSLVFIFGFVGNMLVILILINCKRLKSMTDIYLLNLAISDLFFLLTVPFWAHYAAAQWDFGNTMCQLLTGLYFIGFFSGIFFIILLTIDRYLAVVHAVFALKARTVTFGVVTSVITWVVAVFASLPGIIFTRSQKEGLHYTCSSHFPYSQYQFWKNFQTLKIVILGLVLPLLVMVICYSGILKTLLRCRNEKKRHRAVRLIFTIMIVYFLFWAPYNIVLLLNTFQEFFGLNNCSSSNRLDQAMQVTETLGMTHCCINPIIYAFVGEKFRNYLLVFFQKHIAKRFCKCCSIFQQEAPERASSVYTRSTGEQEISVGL
Protocol: Human CCR5 is used to generate stable transfectants in CHO K1 cells. Membranes prepared from these CCR5 transfectants are used in a radioligand binding assay using 125-1-MIP-1α as a ligand and the compounds of formula I are tested for inhibitory activity. The data are reported as IC50, i.e. the concentration of compound required to achieve 50% inhibition of [I-125]MIP-1α binding. In this assay, compounds of formula I have an IC50 between 0.004 and 10 μM.

## C[C@H]1CN(CC[C@]2(O)CC[C@@H](NC(=O)c3cc4c(OCc5coc6cc(O[C@H]7CCOC7)ccc56)cccc4[nH]3)CC2)CC[C@@H]1O [Example 21, 4-{6-[(S)-(Tetrahydro-furan-3-yl)oxy]-benzofuran-3-ylmethoxy}-1H-indole-2-carboxylic acid {4-hydroxy-4-[2-((3S,4S)-4-hydroxy-3-methyl-piperidin-1-yl)-ethyl]-cyclohexyl}-amideamide]
hCCR2b
  IC50: 1.6 nM
Human CCR5
  IC50: 9 nM

## C[C@H]1CN(CC[C@]2(O)CC[C@@H](NC(=O)c3cc4c(OCc5ccoc5)cccc4[nH]3)CC2)CC[C@@H]1O [Example 3, 4-(Furan-3-ylmethoxy)-1H-indole-2-carboxylic acid {4-hydroxy-4-[2-((3S,4S)-4-hydroxy-3-methyl-piperidin-1-yl)-ethyl]-cyclohexyl}-amide]
Human CCR5
  IC50: 13.8 nM

## C[C@H]1CN(CC[C@]2(O)CC[C@@H](NC(=O)c3cc4c(OCc5coc6cc(F)ccc56)cccc4[nH]3)CC2)CC[C@@H]1O [Example 22, 4-(6-Fluoro-benzofuran-3-ylmethoxy)-1H-indole-2-carboxylic acid {4-hydroxy-4-[2-((3S,4S)-4-hydroxy-3-methyl-piperidin-1-yl)-ethyl]-cyclohexyl}-amide]
hCCR2b
  IC50: 7.4 nM

## CCOCCCOc1ccc2c(COc3cccc4[nH]c(C(=O)N[C@H]5CC[C@](O)(CCN6CC[C@H](O)[C@@H](C)C6)CC5)cc34)coc2c1 [Example 20, 4-[6-(3-Ethoxy-propoxy)-benzofuran-3-ylmethoxy]-1H-indole-2-carboxylic acid {4-hydroxy-4-[2-((3S,4S)-4-hydroxy-3-methyl-piperidin-1-yl)-ethyl]-cyclohexyl}-amide]
hCCR2b
  IC50: 0.9 nM
Human CCR5
  IC50: 3.2 nM

## COc1cccc2c(COc3cccc4[nH]c(C(=O)N[C@H]5CC[C@](O)(CCN6CC[C@H](O)[C@@H](C)C6)CC5)cc34)coc12 [Example 23, 4-(7-Methoxy-benzofuran-3-ylmethoxy)-1H-indole-2-carboxylic acid {4-hydroxy-4-[2-((3S,4S)-4-hydroxy-3-methyl-piperidin-1-yl)-ethyl]-cyclohexyl}-amide]
hCCR2b
  IC50: 12.5 nM
Human CCR5
  IC50: 12.1 nM

## COc1cccc2occ(COc3cccc4[nH]c(C(=O)N[C@H]5CC[C@](O)(CCN6CC[C@H](O)[C@@H](C)C6)CC5)cc34)c12 [Example 10, 4-(4-Methoxy-benzofuran-3-ylmethoxy)-1H-indole-2-carboxylic acid {4-hydroxy-4-[2-((3S,4S)-4-hydroxy-3-methyl-piperidin-1-yl)-ethyl]-cyclohexyl}-amide]
hCCR2b
  IC50: 1.5 nM
Human CCR5
  IC50: 10.6 nM

## C[C@H]1CN(CC[C@]2(O)CC[C@@H](NC(=O)c3cc4c(OCc5coc6cc(F)cc(F)c56)cccc4[nH]3)CC2)CC[C@@H]1O [Example 11, 4-(4,6-Difluoro-benzofuran-3-ylmethoxy)-1H-indole-2-carboxylic acid {4-hydroxy-4-[2-((3S,4S)-4-hydroxy-3-methyl-piperidin-1-yl)-ethyl]-cyclohexyl}-amide]
hCCR2b
  IC50: 2.3 nM

## C[C@H]1CN(CC[C@]2(O)CC[C@@H](NC(=O)c3cc4c(OCc5coc6c5C(=O)CCC6)cccc4[nH]3)CC2)CC[C@@H]1O [Example 6, 4-(4-Oxo-4,5,6,7-tetrahydro-benzofuran-3-ylmethoxy)-1H-indole-2-carboxylic acid {4-hydroxy-4-[2-((3S,4S)-4-hydroxy-3-methyl-piperidin-1-yl)-ethyl]-cyclohexyl}-amide]
hCCR2b
  IC50: 24.3 nM
Human CCR5
  IC50: 27 nM

## C[C@H]1CN(CC[C@]2(O)CC[C@@H](NC(=O)c3cc4c(OCC5CCC5)cccc4[nH]3)CC2)CC[C@@H]1O [Example 1, 4-Cyclobutylmethoxy-1H-indole-2-carboxylic acid {4-hydroxy-4-[2-((3S,4S)-4-hydroxy-3-methyl-piperidin-1-yl)-ethyl]-cyclohexyl}-amide]
hCCR2b
  IC50: 12 nM
Human CCR5
  IC50: 13.2 nM

## COCCCOc1ccc2c(COc3cccc4[nH]c(C(=O)N[C@H]5CC[C@](O)(CCN6CC[C@H](O)[C@@H](C)C6)CC5)cc34)coc2c1 [Example 19, 4-[6-(3-Methoxy-propoxy)-benzofuran-3-ylmethoxy]-1H-indole-2-carboxylic acid {4-hydroxy-4-[2-((3S,4S)-4-hydroxy-3-methyl-piperidin-1-yl)-ethyl]-cyclohexyl}-amide]
hCCR2b
  IC50: 0.7 nM

## C[C@H]1CN(CC[C@]2(O)CC[C@@H](NC(=O)c3cc4c(OCc5coc6ccc(Cl)cc56)cccc4[nH]3)CC2)CC[C@@H]1O [Example 12, 4-(5-Chloro-benzofuran-3-ylmethoxy)-1H-indole-2-carboxylic acid {4-hydroxy-4-[2-((3S,4S)-4-hydroxy-3-methyl-piperidin-1-yl)-ethyl]-cyclohexyl}-amide]
hCCR2b
  IC50: 0.2 nM
Human CCR5
  IC50: 0.5 nM

## COc1ccc2c(COc3cccc4[nH]c(C(=O)N[C@H]5CC[C@](O)(CCN6CC[C@H](O)[C@@H](C)C6)CC5)cc34)coc2c1 [Example 13, 4-(6-Methoxy-benzofuran-3-ylmethoxy)-1H-indole-2-carboxylic acid {4-hydroxy-4-[2-((3S,4S)-4-hydroxy-3-methyl-piperidin-1-yl)-ethyl]-cyclohexyl}-amide]
hCCR2b
  IC50: 2.7 nM
Human CCR5
  IC50: 5.8 nM

## C[C@H]1CN(CC[C@]2(O)CC[C@@H](NC(=O)c3cc4c(OC[C@@H]5COc6ccccc65)cccc4[nH]3)CC2)CC[C@@H]1O [Example 8, 4-[(S)-1-(2,3-Dihydro-benzofuran-3-yl)methoxy]-1H-indole-2-carboxylic acid {4-hydroxy-4-[2-((3S,4S)-4-hydroxy-3-methyl-piperidin-1-yl)-ethyl]-cyclohexyl}-amide]
hCCR2b
  IC50: 10.8 nM
Human CCR5
  IC50: 58.5 nM

## C[C@H]1CN(CC[C@]2(O)CC[C@@H](NC(=O)c3cc4c(OCc5coc6c5C(=O)CC(C)(C)C6)cccc4[nH]3)CC2)CC[C@@H]1O [Example 7, 4-(6,6-Dimethyl-4-oxo-4,5,6,7-tetrahydro-benzofuran-3-ylmethoxy)-1H-indole-2-carboxylic acid {4-hydroxy-4-[2-((3S,4S)-4-hydroxy-3-methyl-piperidin-1-yl)-ethyl]-cyclohexyl}-amide]
hCCR2b
  IC50: 13.8 nM
Human CCR5
  IC50: 11.9 nM

## COCC(C)Oc1ccc2c(COc3cccc4[nH]c(C(=O)N[C@H]5CC[C@](O)(CCN6CC[C@H](O)[C@@H](C)C6)CC5)cc34)coc2c1 (mixture of isomers) [Example 17, 4-[6-((RS)-2-Methoxy-1-methyl-ethoxy)-benzofuran-3-ylmethoxy]-1H-indole-2-carboxylic acid {4-hydroxy-4-[2-((3S,4S)-4-hydroxy-3-methyl-piperidin-1-yl)-ethyl]-cyclohexyl}-amide]
hCCR2b
  IC50: 0.8 nM
